Source: the NIST ThermoML archive (doi:10.1016/j.fluid.2007.01.033)
Numbers after ± are expanded uncertainties.

Tests used:
[1] = refractive index (Na D-line) (dimensionless); details: 298.15 K; 101.33 kPa; Liquid; Standard Abbe refractometry
[2] = xn = mol fraction of the nth substance listed; details: 313.15 K, Liquid

COC(C)=O [methyl ethanoate]
Details	mass density [kg/m3]
298.15 K, 101.33 kPa, Liquid	927.1 ± 0.3

Details	Normal boiling temperature [°C]	refractive index
Liquid	56.89 ± 0.17	–
[1]	–	1.3594 ± 0.0007

O=C=O [carbon dioxide]
313.15 K, Fluid (supercritical or subcritical phases)
Details	mass density [kg/m3]
1000 kPa	17.9 ± 0.2
2000 kPa	37.1 ± 0.3
3000 kPa	58.7 ± 0.3
4000 kPa	83.5 ± 0.4
5000 kPa	112.7 ± 0.5
6000 kPa	148.8 ± 0.7
7000 kPa	197.3 ± 0.9
8000 kPa	276.7 ± 1.6
9000 kPa	483.4 ± 2.6
10000 kPa	627.4 ± 2.3

COC(C)=O [methyl ethanoate] + O=C=O
mass density [kg/m3], [2]
Details	1000 kPa	2000 kPa	3000 kPa	4000 kPa	5000 kPa	6000 kPa	7000 kPa	8000 kPa	9000 kPa	10000 kPa
x2 = 0	907.9 ± 0.4	908.9 ± 0.4	909.7 ± 0.4	910.9 ± 0.4	912 ± 0.4	913.1 ± 0.4	914.1 ± 0.5	915.1 ± 0.5	916.1 ± 0.5	917.1 ± 0.5
x2 = 0.1	910 ± 0.4	911.1 ± 0.4	912.4 ± 0.4	913.5 ± 0.4	914.7 ± 0.4	915.9 ± 0.4	917 ± 0.4	918.1 ± 0.5	919.2 ± 0.5	920.3 ± 0.5
x2 = 0.2	–	913.9 ± 0.4	915.2 ± 0.4	916.6 ± 0.4	917.9 ± 0.4	919.1 ± 0.4	920.4 ± 0.4	921.7 ± 0.4	922.9 ± 0.5	924.1 ± 0.5
x2 = 0.3	–	–	–	917.1 ± 0.4	918.6 ± 0.4	920.1 ± 0.4	921.5 ± 0.4	922.9 ± 0.4	924.3 ± 0.5	925.7 ± 0.5
x2 = 0.4	–	–	–	917.4 ± 0.4	919.2 ± 0.4	920.9 ± 0.4	922.7 ± 0.4	924.3 ± 0.4	925.9 ± 0.4	927.5 ± 0.5
x2 = 0.5	–	–	–	–	915.4 ± 0.4	917.5 ± 0.4	919.6 ± 0.4	921.6 ± 0.4	923.7 ± 0.5	925.6 ± 0.5
x2 = 0.6	–	–	–	–	–	909 ± 0.5	912.8 ± 0.5	915.5 ± 0.5	918.1 ± 0.5	920.7 ± 0.5
x2 = 0.7	–	–	–	–	–	891.8 ± 0.5	895.9 ± 0.5	899.7 ± 0.5	903.5 ± 0.5	907 ± 0.5
x2 = 0.8	–	–	–	–	–	–	861.5 ± 0.6	868.2 ± 0.6	873.8 ± 0.7	879.5 ± 0.7
x2 = 0.9	–	–	–	–	–	–	–	793.5 ± 0.9	808 ± 0.9	820.3 ± 0.9
x2 = 0.95	–	–	–	–	–	–	–	–	734.6 ± 1.2	759.7 ± 1.2
